Results as given in patent publication US20030078251A1, “Benzoxazepinones and their use as squalene synthase inhibitors” (priority 2000, published 2003).

COc1ccc(C(=O)O)cc1NC(=O)C[C@H]1O[C@H](c2cccc(OC)c2OC)c2cc(Cl)ccc2N(CC(C)(C)CO)C1=O [Example 102, 3-[[(3R,5S)-7-Chloro-5-(2,3-dimethoxyphenyl)-1-(3-hydroxy-2,2-dimethylpropyl)-2-oxo-1,2,3,5-tetrahydro-4,1-benzoxazepin-3-yl]acetyl]amino-4-methoxybenzoic acid]
melting point: 171 to 173 °C

COc1cccc([C@H]2O[C@H](CC(=O)Nc3cc(C(=O)O)ccc3F)C(=O)N(CC(C)(C)CO)c3ccc(Cl)cc32)c1OC [Example 106, 3-[[[(3R,5S)-7-Chloro-5-(2,3-dimethoxyphenyl)-1-(3-hydroxy-2,2-dimethylpropyl)-2-oxo-1,2,3,5-tetrahydro-4,1-benzoxazepin-3-yl]acetyl]amino]-4-fluorobenzoic acid]
melting point: 163 to 166 °C

COc1cccc([C@H]2O[C@H](CC(=O)Nc3cc(C(=O)O)ccc3F)C(=O)N(CC(C)(C)COC(C)=O)c3ccc(Cl)cc32)c1OC [Example 107, 3-[[[(3R,5S)-1-(3-Acetoxy-2,2-dimethylpropyl)-7-chloro-5-(2,3-dimethoxyphenyl)-2-oxo-1,2,3,5-tetrahydro-4,1-benzoxazepin-3-yl]acetyl]amino]-4-fluorobenzoic acid]
melting point: 146 to 149 °C

COc1cccc([C@H]2O[C@H](CC(=O)Nc3cc(CCCCC(=O)O)ccc3F)C(=O)N(CC(C)(C)CO)c3ccc(Cl)cc32)c1OC [Example 108, 5-[3-[[[(3R,5S)-7-Chloro-5-(2,3-dimethoxyphenyl)-1-(3-hydroxy-2,2-dimethylpropyl)-2-oxo-1,2,3,5-tetrahydro-4,1-benzoxazepin-3-yl]acetyl]amino]-4-fluorophenyl]pentanoic acid]
melting point: 115 to 118 °C

COc1ccc(CC(=O)O)cc1NC(=O)C[C@H]1O[C@H](c2cccc(OC)c2OC)c2cc(Cl)ccc2N(CC(C)(C)CO)C1=O [Example 109]
melting point: 215 to 216 °C

COc1ccc(CCCC(=O)O)cc1NC(=O)C[C@H]1O[C@H](c2cccc(OC)c2OC)c2cc(Cl)ccc2N(CC(C)(C)CO)C1=O [Example 110, 4-[3-[[[(3R,5S)-7-Chloro-5-(2,3-dimethoxyphenyl)-1-(3-hydroxy-2,2-dimethylpropyl)-2-oxo-1,2,3,5-tetrahydro-4,1-benzoxazepin-3-yl]acetyl]amino]-4-methoxyphenyl]butanoic acid]
melting point: 119 to 121 °C

COc1cccc([C@H]2O[C@H](CC(=O)Nc3cccc(CCCC(=O)O)c3)C(=O)N(CC(C)(C)CO)c3ccc(Cl)cc32)c1OC [Example 111, 4-[3-[[[(3R,5S)-7-Chloro-5-(2,3-dimethoxyphenyl)-1-(3-hydroxy-2,2-dimethylpropyl)-2-oxo-1,2,3,5-tetrahydro-4,1-benzoxazepin-3-yl]acetyl]amino]phenyl]butanoic acid]
melting point: 119 to 122 °C

COc1cccc([C@H]2O[C@H](CC(=O)Nc3cc4c(c(C(=O)O)c3)CCCC4)C(=O)N(CC(C)(C)CO)c3ccc(Cl)cc32)c1OC [Example 112, 3-[[[(3R,5S)-7-Chloro-5-(2,3-dimethoxyphenyl)-1-(3-hydroxy-2,2-dimethylpropyl)-2-oxo-1,2,3,5-tetrahydro-4,1-benzoxazepin-3-yl]acetyl]amino]-5,6,7,8-tetrahydro-1-naphthoic acid]
melting point: 178 to 179 °C

COc1cccc([C@@H]2O[C@@H](CC(=O)NCCc3occc3C(=O)O)C(=O)N(CC(C)(C)CO)c3ccc(Cl)cc32)c1OC [Example 119, 2-[2-[[[(3S,5R)-7-Chloro-5-(2,3-dimethoxyphenyl)-1-(3-hydroxy-2,2-dimethylpropyl)-2-oxo-1,2,3,5-tetrahydro-4,1-benzoxazepin-3-yl]acetyl]amino]ethyl]furan-3-carboxylic acid]
melting point: 123 to 126 °C

COc1cccc([C@@H]2O[C@@H](CC(=O)Nc3cccc(CCC(=O)O)c3)C(=O)N(CC(C)(C)CO)c3ccc(Cl)cc32)c1OC [Example 120, 3-[3-[[(3S,5R)-7-Chloro-5-(2,3-dimethoxyphenyl)-1-(3-hydroxy-2,2-dimethylpropyl)-2-oxo-1,2,3,5-tetrahydro-4,1-benzoxazepin-3-yl]acetyl]aminophenyl]propionic Acid]
melting point: 137 to 139 °C

COc1cccc([C@@H]2O[C@@H](CC(=O)Nc3cc(CCC(=O)O)ccc3F)C(=O)N(CC(C)(C)CO)c3ccc(Cl)cc32)c1OC [Example 121, 3-[3-[[[(3S,5R)-7-Chloro-5-(2,3-dimethoxyphenyl)-1-(3-hydroxy-2,2-dimethylpropyl)-2-oxo-1,2,3,5-tetrahydro-4,1-benzoxazepin-3-yl]acetyl]amino]-4-fluorophenyl]propionic Acid]
melting point: 151 to 153 °C

COc1cccc([C@H]2O[C@H](CC(=O)Nc3ccc(OCCCc4ccccc4)c(CCC(=O)O)c3)C(=O)N(CC(C)(C)CO)c3ccc(Cl)cc32)c1OC [Example 124, 3-[5-[[[(3R,5S)-7-Chloro-5-(2,3-dimethoxyphenyl)-1-(3-hydroxy-2,2-dimethylpropyl)-2-oxo-1,2,3,5-tetrahydro-4,1-benzoxazepin-3-yl]acetyl]amino]-2-(3-phenylpropyloxy)phenyl]propionic Acid]
melting point: 147 to 149 °C

COc1cccc([C@H]2O[C@H](CC(=O)Nc3cc(CCC(=O)O)ccc3OCCCc3ccccc3)C(=O)N(CC(C)(C)CO)c3ccc(Cl)cc32)c1OC [Example 125, 3-[3-[[[(3R,5S)-7-Chloro-5-(2,3-dimethoxyphenyl)-1-(3-hydroxy-2,2-dimethylpropyl)-2-oxo-1,2,3,5-tetrahydro-4,1-benzoxazepin-3-yl]acetyl]amino]-4-(3-phenylpropyloxy)phenyl]propionic Acid]
melting point: 162 to 165 °C

COc1cccc([C@H]2O[C@H](CC(=O)Nc3cccc4c(C(=O)O)cccc34)C(=O)N(CC(C)(C)CO)c3ccc(Cl)cc32)c1OC [Example 129, 5-[[2-[(3R,5S)-7-Chloro-5-(2,3-dimethoxyphenyl)-1-(3-hydroxy-2,2-dimethylpropyl)-2-oxo-1,2,3,5-tetrahydro-4,1-benzoxazepin-3-yl]acetyl]amino]-1-naphthoic acid]
melting point: 171 to 174 °C

COc1cccc([C@H]2O[C@H](CC(=O)Nc3ccc(OC(F)(F)C(=O)O)cc3)C(=O)N(CC(C)(C)CO)c3ccc(Cl)cc32)c1OC [Example 132, 2-[4-[[[(3R,5S)-7-Chloro-5-(2,3-dimethoxyphenyl)-1-(3-hydroxy-2,2-dimethylpropyl)-2-oxo-1,2,3,5-tetrahydro-4,1-benzoxazepin-3-yl]acetyl]amino]phenyloxy]-2,2-difluoroacetic acid]
melting point: 149 to 150 °C

COc1cccc([C@H]2O[C@H](CC(=O)Nc3cccc(OC(F)(F)C(=O)O)c3)C(=O)N(CC(C)(C)CO)c3ccc(Cl)cc32)c1OC [Example 133, 2-[3-[[[(3R,5S)-7-Chloro-5-(2,3-dimethoxyphenyl)-1-(3-hydroxy-2,2-dimethylpropyl)-2-oxo-1,2,3,5-tetrahydro-4,1-benzoxazepin-3-yl]acetyl]amino]phenyloxy]-2,2-difluoroacetic acid]
melting point: 119 to 121 °C

COc1cccc([C@H]2O[C@H](CC(=O)Nc3ccc(F)c(CCC(=O)O)c3)C(=O)N(CC(C)(C)CO)c3ccc(Cl)cc32)c1OC [Example 134, 3-[5-[[[(3R,5S)-7-Chloro-5-(2,3-dimethoxyphenyl)-1-(3-hydroxy-2,2-dimethylpropyl)-2-oxo-1,2,3,5-tetrahydro-4,1-benzoxazepin-3-yl]acetyl]amino]-2-fluorophenyl]propionic Acid]
melting point: 123 to 125 °C
